Common to all, as to format: biochemical
One assay addresses T1, GH2C (Bacteroides uniformis, UniProt A0A2D0TCC9).
T1 construct: nucleotides 76-2547 of the gene (signal peptide removed; about residues 26-848), N-terminal His6 tag with thrombin site, pET28a, E. coli BL21 Star (DE3)
T1 sequence (A0A2D0TCC9 4-826): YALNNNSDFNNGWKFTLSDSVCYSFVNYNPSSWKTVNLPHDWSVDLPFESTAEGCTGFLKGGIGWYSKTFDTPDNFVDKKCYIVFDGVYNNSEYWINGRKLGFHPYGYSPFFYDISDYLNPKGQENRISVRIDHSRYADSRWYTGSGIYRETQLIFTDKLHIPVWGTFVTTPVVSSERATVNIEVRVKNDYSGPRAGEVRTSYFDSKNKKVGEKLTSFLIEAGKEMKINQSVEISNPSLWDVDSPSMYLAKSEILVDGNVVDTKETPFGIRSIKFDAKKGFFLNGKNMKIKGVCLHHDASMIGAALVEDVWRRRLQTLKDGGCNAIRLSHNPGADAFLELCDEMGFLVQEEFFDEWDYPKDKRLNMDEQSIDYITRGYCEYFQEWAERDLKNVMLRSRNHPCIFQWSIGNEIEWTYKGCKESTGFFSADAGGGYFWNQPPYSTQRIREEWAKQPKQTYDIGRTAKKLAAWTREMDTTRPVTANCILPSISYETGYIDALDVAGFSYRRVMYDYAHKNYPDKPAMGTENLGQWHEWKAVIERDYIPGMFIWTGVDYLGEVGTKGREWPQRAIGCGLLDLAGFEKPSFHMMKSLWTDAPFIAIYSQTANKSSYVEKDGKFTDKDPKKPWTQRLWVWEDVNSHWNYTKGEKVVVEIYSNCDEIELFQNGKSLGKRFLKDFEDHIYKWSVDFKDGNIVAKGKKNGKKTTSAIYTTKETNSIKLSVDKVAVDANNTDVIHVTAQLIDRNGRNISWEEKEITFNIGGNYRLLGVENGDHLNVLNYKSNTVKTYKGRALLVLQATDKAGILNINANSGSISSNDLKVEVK
Description: TLC product analysis. The settings on record: 2 uM enzyme, 2.5 mM A3, 20 mM Tris pH 8.0, 0.5 M NaCl, 37 C, 2 h.

The target of the next assay is T2, GH117B (Bacteroides uniformis, UniProt A0A2D0TCD6).
T2 construct: nucleotides 76-1209 of the gene (signal peptide removed; about residues 26-402), N-terminal His6 tag with thrombin site, pET28a, E. coli BL21 Star (DE3); homodimer
T2 sequence (A0A2D0TCD6 4-380): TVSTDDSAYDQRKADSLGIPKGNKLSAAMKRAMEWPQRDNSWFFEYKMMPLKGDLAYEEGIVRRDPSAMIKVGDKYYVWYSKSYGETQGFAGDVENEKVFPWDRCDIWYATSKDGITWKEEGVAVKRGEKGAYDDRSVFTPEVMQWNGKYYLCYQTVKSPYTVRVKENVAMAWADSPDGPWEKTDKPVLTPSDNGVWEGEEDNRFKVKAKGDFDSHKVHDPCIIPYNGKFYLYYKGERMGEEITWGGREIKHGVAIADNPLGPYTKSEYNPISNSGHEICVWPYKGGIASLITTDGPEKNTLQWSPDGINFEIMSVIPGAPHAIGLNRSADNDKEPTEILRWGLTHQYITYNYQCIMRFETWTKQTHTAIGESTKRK
Description: TLC product analysis. To be noted: 0.5 uM enzyme, 0.5 mg/ml N2, 20 mM Tris pH 8.0, 0.5 M NaCl, 37 C, 24 h.

The next assay addresses T3, GH86 (Bacteroides uniformis, UniProt A0A2D0TCD3).
T3 construct: nucleotides 61-1941 of the gene (signal peptide removed; about residues 21-646), N-terminal His6 tag with thrombin site, pET28a, E. coli BL21 Star (DE3)
T3 sequence (A0A2D0TCD3 4-629): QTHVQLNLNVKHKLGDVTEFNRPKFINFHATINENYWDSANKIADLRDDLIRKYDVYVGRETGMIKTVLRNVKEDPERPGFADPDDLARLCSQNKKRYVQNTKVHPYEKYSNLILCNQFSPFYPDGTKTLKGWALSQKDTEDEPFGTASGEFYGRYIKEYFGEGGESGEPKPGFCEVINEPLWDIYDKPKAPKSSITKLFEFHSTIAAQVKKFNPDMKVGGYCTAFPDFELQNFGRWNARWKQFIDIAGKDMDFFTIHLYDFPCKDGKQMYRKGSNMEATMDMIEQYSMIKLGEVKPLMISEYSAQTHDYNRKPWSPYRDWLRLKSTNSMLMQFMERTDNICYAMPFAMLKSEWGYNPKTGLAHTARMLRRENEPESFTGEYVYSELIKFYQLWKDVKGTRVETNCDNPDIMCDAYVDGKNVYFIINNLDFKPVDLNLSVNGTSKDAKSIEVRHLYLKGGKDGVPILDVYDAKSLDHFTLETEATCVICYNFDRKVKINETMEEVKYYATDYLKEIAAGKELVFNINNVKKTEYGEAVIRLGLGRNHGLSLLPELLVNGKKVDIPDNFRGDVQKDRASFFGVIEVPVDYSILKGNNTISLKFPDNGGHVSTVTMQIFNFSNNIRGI
Description: FACE product analysis. The settings on record: 20 mM Tris pH 8.0, 0.5 M NaCl, 37 C, overnight.

In another assay the target is T4, GH16B (Bacteroides uniformis, UniProt A0A2D0TCD1).
T4 construct: nucleotides 67-1029 of the gene (signal peptide removed; about residues 23-342), N-terminal His6 tag with thrombin site, pET28a, E. coli BL21 Star (DE3)
T4 sequence (A0A2D0TCD1 4-323): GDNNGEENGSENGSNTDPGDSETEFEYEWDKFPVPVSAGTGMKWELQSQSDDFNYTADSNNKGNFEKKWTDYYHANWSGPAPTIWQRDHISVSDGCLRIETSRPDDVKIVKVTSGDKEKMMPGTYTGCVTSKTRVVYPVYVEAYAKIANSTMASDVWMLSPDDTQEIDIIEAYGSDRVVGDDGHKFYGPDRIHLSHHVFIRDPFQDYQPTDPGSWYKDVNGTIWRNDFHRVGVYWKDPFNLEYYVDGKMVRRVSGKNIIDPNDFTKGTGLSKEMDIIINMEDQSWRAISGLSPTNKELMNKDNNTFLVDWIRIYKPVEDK
Description: FACE product analysis. To be noted: 20 mM Tris pH 8.0, 0.5 M NaCl, 37 C, overnight.

Molecules are shown by their SMILES.

Turning to `OC[C@H]1O[C@@H](O[C@H]2[C@H]3OC[C@@H]2O[C@@H](O[C@H]2[C@@H](O)[C@@H](CO)OC(O)[C@@H]2O)[C@H]3O)[C@H](O)[C@@H](O)[C@H]1O` (stereo partly drawn) [A3, agarotriose], the TLC product analysis entry at GH2C was “GH2C was able to hydrolyze A3”.
On to `OC[C@H]1OC(O)[C@H](O)[C@@H](O[C@@H]2O[C@H]3CO[C@@H]([C@@H]2O)[C@@H]3O)[C@H]1O` (stereo partly drawn) [N2, neoagarobiose], for which, at GH117B, the TLC product analysis entry is “GAL and AHG released from N2 by GH117B”.
In the case of `OC[C@H]1O[C@@H](O[C@H]2[C@H]3OC[C@@H]2O[C@@H](O[C@H]2[C@@H](O)[C@@H](CO)O[C@@H](O[C@H]4[C@H]5OC[C@@H]4O[C@@H](O[C@H]4[C@@H](O)[C@@H](CO)OC(O)[C@@H]4O)[C@H]5O)[C@@H]2O)[C@H]3O)[C@H](O)[C@@H](O[C@@H]2O[C@H]3CO[C@@H]([C@@H]2O)[C@@H]3O)[C@H]1O` (stereo partly drawn) [N6, neoagarohexaose], the FACE product analysis entry was “GH86 was able to digest neoagarooctaose (N8) and neoagarohexaose (N6) to N2” on GH86; “GH16B predominantly generated N4 from N8, N2 and N4 from N6” on GH16B (weak activity).
With `OC[C@H]1O[C@@H](O[C@H]2[C@H]3OC[C@@H]2O[C@@H](O[C@H]2[C@@H](O)[C@@H](CO)O[C@@H](O[C@H]4[C@H]5OC[C@@H]4O[C@@H](O[C@H]4[C@@H](O)[C@@H](CO)O[C@@H](O[C@H]6[C@H]7OC[C@@H]6O[C@@H](O[C@H]6[C@@H](O)[C@@H](CO)OC(O)[C@@H]6O)[C@H]7O)[C@@H]4O)[C@H]5O)[C@@H]2O)[C@H]3O)[C@H](O)[C@@H](O[C@@H]2O[C@H]3CO[C@@H]([C@@H]2O)[C@@H]3O)[C@H]1O` (stereo partly drawn) [N8, neoagarooctaose], the FACE product analysis result on GH86 was “GH86 was able to digest neoagarooctaose (N8) and neoagarohexaose (N6) to N2”; at GH16B, “GH16B predominantly generated N4 from N8, N2 and N4 from N6”.

Values taken from paper PMC5849685, “Molecular basis of an agarose metabolic pathway acquired by a human intestinal symbiont” (Nature Communications, 2018).
